Consider 28 compounds from ChEMBL document CHEMBL1132704, “Design and synthesis of sulfonyl-substituted 4,5-diarylthiazoles as selective cyclooxygenase-2 inhibitors” (Bioorg Med Chem Lett, 1999).

SMILES strings stand for the structures. pIC50: −log10 of the molar value.

Assay [1] deals with Prostaglandin G/H synthase 1 (Homo sapiens, UniProt P23219).
Description: Inhibition of human cyclooxygenase-1 (hCOX-1) enzyme.
For assay [2], the target named is T1, Prostaglandin G/H synthase 2 (Homo sapiens, UniProt P35354).
T1 sequence (P35354 whole entry): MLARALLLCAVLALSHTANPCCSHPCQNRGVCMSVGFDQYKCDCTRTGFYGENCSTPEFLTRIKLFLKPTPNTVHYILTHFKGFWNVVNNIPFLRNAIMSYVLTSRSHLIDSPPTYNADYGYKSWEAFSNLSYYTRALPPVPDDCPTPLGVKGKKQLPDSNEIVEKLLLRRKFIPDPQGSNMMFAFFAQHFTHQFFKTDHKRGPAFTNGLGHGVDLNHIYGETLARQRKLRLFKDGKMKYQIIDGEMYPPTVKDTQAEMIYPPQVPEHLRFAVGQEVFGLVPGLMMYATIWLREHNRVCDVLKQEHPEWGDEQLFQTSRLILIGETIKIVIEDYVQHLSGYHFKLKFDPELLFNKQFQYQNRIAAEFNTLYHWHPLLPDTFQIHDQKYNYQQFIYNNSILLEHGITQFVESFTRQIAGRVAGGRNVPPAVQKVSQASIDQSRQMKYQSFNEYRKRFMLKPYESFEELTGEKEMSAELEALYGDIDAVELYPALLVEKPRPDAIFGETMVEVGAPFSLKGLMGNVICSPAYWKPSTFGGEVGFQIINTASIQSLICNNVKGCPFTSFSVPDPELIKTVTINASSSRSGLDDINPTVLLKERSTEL

In assay [3] the test system is Rattus norvegicus. The assay is described as follows: Compound was evaluated for the percent inhibition of hyperalgesia at an effective dose of 20 mg/kg in rat. It counts as functional.
The test system of assay [4] is Rattus norvegicus. The assay is described as follows: Compound was evaluated for the antiinflammatory activity in vivo in the carrageenan rat paw edema (CPE). The format is functional.

Prostaglandin G/H synthase 1, sequence (P23219 whole entry): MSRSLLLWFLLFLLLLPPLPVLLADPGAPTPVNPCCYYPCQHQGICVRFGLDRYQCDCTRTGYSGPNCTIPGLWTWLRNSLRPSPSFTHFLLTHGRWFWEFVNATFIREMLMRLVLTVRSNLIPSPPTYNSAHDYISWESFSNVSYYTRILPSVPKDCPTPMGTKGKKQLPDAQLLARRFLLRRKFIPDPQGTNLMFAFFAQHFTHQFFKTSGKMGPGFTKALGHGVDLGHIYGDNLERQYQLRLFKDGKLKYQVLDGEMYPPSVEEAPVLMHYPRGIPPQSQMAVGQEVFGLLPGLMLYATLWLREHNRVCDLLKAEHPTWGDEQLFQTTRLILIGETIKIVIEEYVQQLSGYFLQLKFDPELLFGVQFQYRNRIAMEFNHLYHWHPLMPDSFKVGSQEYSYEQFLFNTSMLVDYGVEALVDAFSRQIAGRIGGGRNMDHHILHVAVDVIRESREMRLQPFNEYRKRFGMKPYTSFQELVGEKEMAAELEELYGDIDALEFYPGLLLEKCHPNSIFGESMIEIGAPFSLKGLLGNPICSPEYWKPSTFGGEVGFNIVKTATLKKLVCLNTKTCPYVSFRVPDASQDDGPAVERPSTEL

What is called pIC50 is −log10 of the IC50, conventionally taken in molar units. Consider `CS(=O)(=O)c1ccc(-c2sc(CCCc3ccc(Br)cc3)nc2-c2ccc(F)cc2)cc1`, for which the pIC50 in assay [1] was less than 5.00; in assay [2] it was 8.15. For `CS(=O)(=O)c1ccc(-c2sc(-c3cccs3)nc2-c2ccc(F)cc2)cc1`, in that order: less than 4.00 and 7.68. Take `CS(=O)(=O)c1ccc(-c2sc(CCCc3ccccc3)nc2-c2ccc(F)cc2)cc1`: the negative logarithm of the IC50 (pIC50) is less than 3.00 in assay [1] and 6.28 in assay [2]. For `Cc1nc(-c2ccc(F)cc2)c(-c2ccc(S(C)(=O)=O)cc2)s1` the same measures were less than 5.00 and 6.96. `CS(=O)(=O)c1ccc(-c2sc(-c3ccncc3)nc2-c2ccc(F)cc2)cc1`: the negative logarithm of the IC50 (pIC50) in assay [1] is less than 4.00; in assay [2], 5.80.

`CS(=O)(=O)c1ccc(-c2sc(-c3ccccc3Cl)nc2-c2ccc(F)cc2F)cc1`: in assay [2], the negative logarithm of the IC50 (pIC50) was 7.68. With `CS(=O)(=O)c1ccc(-c2nc(C(F)(F)F)sc2-c2ccc(F)cc2)cc1`, the pIC50 is 5.97 in assay [1] and 8.22 in assay [2].

In the case of `CC(C)(C)c1nc(-c2ccc(F)cc2)c(-c2ccc(S(C)(=O)=O)cc2)s1`, the pIC50 was less than 4.00 in assay [1] and 6.96 in assay [2]. Compound `CS(=O)(=O)c1ccc(-c2sc(-c3ccccc3Cl)nc2-c2cccs2)cc1` showed a pIC50 in assay [1] of less than 4.00. With `CC(C)(C)c1ccc(-c2nc(-c3ccc(F)cc3)c(-c3ccc(S(C)(=O)=O)cc3)s2)cc1`, the pIC50 in assay [1] and in assay [2] was less than 4.00 throughout. `CS(=O)(=O)c1ccc(-c2sc(-c3ccccc3Cl)nc2-c2cc(F)ccc2F)cc1`: the pIC50 in assay [1] and in assay [2] was less than 4.00 in each case. In assay [1], `CS(=O)(=O)c1ccc(-c2sc(-c3ccccc3Cl)nc2-c2ccsc2)cc1` had a negative logarithm of the IC50 (pIC50) of less than 4.00. As to `CS(=O)(=O)c1ccc(-c2sc(Cc3ccccc3)nc2-c2ccc(F)cc2)cc1`, the negative logarithm of the IC50 (pIC50) is less than 4.00 in assay [1] and 7.74 in assay [2].

In the case of `CS(=O)(=O)c1ccc(-c2sc(C(F)(F)F)nc2-c2ccc(F)cc2)cc1`, the figures for the pIC50 in assay [1] and in assay [2] were less than 4.00 and 7.64, respectively. For `Cc1nc(-c2ccc(S(C)(=O)=O)cc2)c(-c2ccc(F)cc2)s1`, in that order: less than 4.00 and 6.92. For `CCc1nc(-c2ccc(F)cc2)c(-c2ccc(S(C)(=O)=O)cc2)s1`, in that order: 4.72 and 7.64. For `CS(=O)(=O)c1ccc(-c2sc(-c3cccnc3)nc2-c2ccc(F)cc2)cc1`, in that order: less than 3.00 and 6.37.

One may read the inhibition in vivo as how much of the control response was suppressed. A lower inhibition in vivo goes with little suppression. For orientation: ED50 means the midpoint of the dose-response relation. A high value points to weaker potency. Take `CS(=O)(=O)c1ccc(-c2sc(-c3ccccc3Cl)nc2-c2ccc(F)cc2)cc1`: the pIC50 in assay [1] is less than 4.00; in assay [2] it was 7.30. Further, at 20 mg/kg the inhibition in vivo in assay [3] was 27%. In assay [4], it took a dose of 20 mg/kg to reach the 50% effect level (ED50). Consider `CS(=O)(=O)c1ccc(-c2sc(-c3ccc(Cl)cc3)nc2-c2ccc(F)cc2)cc1`, for which the values for the pIC50 in assay [1] and in assay [2] were less than 4.00 and 7.30, respectively. For `CS(=O)(=O)c1ccc(-c2sc(CCc3ccccc3)nc2-c2ccc(F)cc2)cc1`, in that order: less than 4.00 and 7.49. On to `COc1ccc(-c2nc(-c3ccc(F)cc3)c(-c3ccc(S(C)(=O)=O)cc3)s2)cc1`, for which the pIC50 is less than 5.00 in assay [1] and 6.57 in assay [2].

With `CCOC(=O)c1nc(-c2ccc(F)cc2)c(-c2ccc(S(C)(=O)=O)cc2)s1`, the negative logarithm of the IC50 (pIC50) in assay [1] was less than 4.00; in assay [2], 6.21. For `CS(=O)(=O)c1ccc(-c2sc(-c3ccccc3Cl)nc2-c2ccccc2F)cc1`, in that order: less than 4.00 and 8.00. As for `CS(=O)(=O)c1ccc(-c2sc(-c3ccccc3Cl)nc2-c2cccc(F)c2)cc1`, the pIC50 in assay [1] is less than 4.00; in assay [2], 7.80. Regarding `CS(=O)(=O)c1ccc(-c2nc(-c3ccccc3)sc2-c2ccc(F)cc2)cc1`, the values for the pIC50 in assay [1] and in assay [2] were less than 4.00 and 6.27, respectively.

Regarding `CS(=O)(=O)c1ccc(-c2sc(CC#N)nc2-c2ccc(F)cc2)cc1`, the negative logarithm of the IC50 (pIC50) in assay [1] is less than 4.00; in assay [2], 6.46. For `CS(=O)(=O)c1ccc(-c2sc(-c3ccccc3)nc2-c2ccc(F)cc2)cc1` the same measures were less than 4.00 and less than 4.52. For `CS(=O)(=O)c1ccc(-c2sc(-c3ccccc3Cl)nc2-c2ccccc2)cc1`, in that order: less than 4.00 and 8.00.
